Several values for one entry are separate records, joined by “and”; a condition that tells them apart may be missing. Equal values may be shown once. Read-outs that look alike come from different tables or passages of the source.
What was measured:
[1] = cited from earlier work
SARS-CoV-2 virus [2] = test: Reconstituted human respiratory epithelium of nasal origin (MucilAir HAE) infected with SARS-CoV-2, viral genome RT-PCR; format: cell-based; conditions: alone or combined
Procedure: In order to produce the infections, we have also used a reconstituted human epithelium model (HAE MucilAir, Epithelix), obtained from primary human cells obtained by nasal biopsies, cultivated at the air-liquid interface with a specific culture medium in Costar Transwell inserts (Corning, NY, USA). For the infection experiments, the apical poles were gently washed twice using the medium OptiMEM (Gibco, ThermoFisher Scientific), then infected with 150 µl of virus dilution in medium OptiMEM, with a multiplicity of infection (MOI) of 0.1. After incubation for one hour at 37° C., 5% CO2, the viral suspension was withdrawn.
A quantitative “one-step” PCR was performed using the StepOnePlus Real Time PCR System kit (Applied Biosystems), with the reagent EXPRESS One-Step Superscript qRT-PCR (Invitrogen), in a reaction volume of 20 µl containing 10 µl of supermix Express qPCR (2×), 1 µl of each primer (10 µM), […], 0.4 µl Rox dye (25 µM) and 2 µl of viral RNA.
The following program was used: 15 minutes at 50° C., followed by 40 cycles (15 s 95° C.; 1 min 60° C.).
Reconstituted human respiratory epithelia of nasal origin and cultivated at the air-liquid interface (MucilAir® HAE, Epithelix) were infected with SARS-CoV-2 (MOI 0.1). The basal medium was treated once per day by the following molecules, in simple or combination treatment: • diltiazem (45 or 90 µM), • remdesivir (20 or 40 µM) and • berberine (4 µM) for 48 or 72 hours post-infection.
At various times, the epithelia were harvested and lysed. The total RNA was extracted and the viral genomes were quantified by RT-PCR by normalising the data using the quantification of the product of a cellular gene (GAPDH).

SARS-CoV-2 virus [3] = test: Vero E6 cells infected by SARS-CoV-2, viral infectious titre in culture supernatant; format: cell-based; conditions: monotherapy
Procedure: The viral production relative to each of the concentrations of molecules has been determined and is shown with respect to the viral production from infected cells or HAE under the same conditions but untreated. The median inhibitory concentrations (IC50) were determined for each treatment condition.
The Vero E6 (ATCC CRL-1586) cells were cultivated in medium DMEM 4.5 g/l of glucose, supplemented by L-glutamine and penicillin/streptomycin and 10% inactivated foetal calf serum, at 37° C., 5% CO2.
In order to produce the infections, the cells were rinsed twice by the medium without serum and were covered by a minimum volume containing a dilution of virus, this dilution being determined from the infectious titre (cf. section on determination of the infectious titre), in order to obtain an adequate multiplicity of infection (MOI). After incubation for one hour in the presence of a minimum volume, the medium was replaced by the medium DMEM 4.5 g/l of glucose, supplemented by L-glutamine and penicillin/streptomycin and 2% inactivated foetal calf serum, and the cells were incubated again at 37° C., 5% CO2.
The determination of the infectious titre was performed using a limited dilution technique, on these Vero E6 cells on a 96-well plate. A volume of 50 µl of series dilutions was deposited in the wells in quadruplicates. The cells were then incubated at 37° C., 5% CO2 and the presence of cytopathic effects is then monitored after 3 days of infection. The infectious dose in tissue culture 50% (DICT50/ ml), i.e. the viral titre required to form an infection in 50% of inoculated cells, was calculated using the technique of Reed and Muench.
Vero E6 cells infected by SARS-CoV-2 (MOI 0.1) were treated at one hour post-infection by increasing concentrations of: • diltiazem (2.8 to 45 µM), • berberine (1.6 to 25 µM), and • remdesivir (0.6 to 10 µM), alone (FIG. 1) and in combination (FIG. 2).
For each of the combined treatments tested, a dose of one of the molecules was fixed and combined with increasing concentrations of the other molecule (same concentration ranges as those used in monotherapy, respectively) and vice versa. The viral infectious titres measured in the culture supernatants of the infected cells (sampled at 48 and 72 hours post-infection) reflect the level of viral replication measured under the various treatment conditions.

[4] = Cytotoxicity (CC50) on A549-ACE2 cells, MTS test; format: cell-based; conditions: human, 72 hours of treatment, read-out: CC50 (cytotoxic concentration 50%)
Procedure: In parallel, the cytotoxicity of diltiazem on A549-ACE2 cells has been verified under the same experimental conditions. For this purpose, the CC50 (cytotoxic concentration 50%), which corresponds to the necessary dose of diltiazem in order to reduce the viability of the cells by half, was measured by monitoring the viability of the A549-ACE2 cells in the presence of various concentrations of diltiazem. The variability was determined by an MTS carried out 72 hours after the start of the treatment.
The MTS test is a colorimetric method: the method is based on the reduction of the compound MTS tetrazolium by viable cells in order to generate a coloured formazan product, enabling the counting of viable cells (coloured) […].

[5] = system: SARS-CoV-2 (Wuhan-like strain); test: A549-ACE2 cells infected with SARS-CoV-2, viral titre in supernatant over time by RT-PCR; format: cell-based; conditions: A549-ACE2, MOI 10^-1 and 10^-2, single treatment 1 hpi, diltiazem 45 µM or remdesivir 5 µM, 24-96 hpi
Description: The cells of the cell line A549 are human alveolar basal epithelial cells derived from adenocarcinoma. This cell line is used as a model for the study of lung cancer, but also as target cells for infectious viruses targeting the respiratory tract. These cells were subsequently modified to express the ACE2 receptor, via which the SARS-CoV-2 virus penetrates into the hosts cells. This cell line A549-ACE2 was obtained from Creative Biogene (USA).
The experimental protocol is the following: • Seeding of the A549-ACE2 cells, • 24 hours after infection of the A549-ACE2 cells with a Wuhan-like strain of SARS-CoV-2 (MOI 10^-1 and 10^-2), • 1 hour post infection (pi), the cells are treated with 45 uM diltiazem. • The supernatants are sampled at 24 hours, 48 hours, 72 hours and 96 hours after the infection for a viral quantification by RT-PCR.
The incubation media used are the following: • Seeding medium: DMEM 1 g/L glucose (Glc), 200 mM L-Glutamine (L-Glu), […] penicillin/streptomycin (P/S), 10% foetal calf serum (FCS) • Infection medium: DMEM 1 g/L Glc, 200 mM L-Glu, 104 U P/S, 0% FCS • Treatment medium: DMEM 1 g/L Glc, 200 mM L-Glu, 104 U P/S, 2% FCS

[6] = system: SARS-CoV-2 (Wuhan-like strain); test: IC50 of diltiazem on SARS-CoV-2 in A549-ACE2 cells, RT-PCR; format: cell-based; conditions: Severe acute respiratory syndrome coronavirus 2; A549-ACE2, MOI 10^-1, treated 1 hpi, 72 hours after infection
Procedure: The experimental protocol is the following: • Seeding of the A549-ACE2 cells, • 24 hours after infection of A549-ACE2 cells with a Wuhan-like strain of SARS-CoV-2 (MOI 10^-1), • 1 hour post infection (pi), the cells are treated with diltiazem at different concentrations. • The supernatants are sampled at 72 hours after the infection for a viral quantification by RT-PCR.
The IC50 is the median inhibitory concentration, i.e. the quantity of diltiazem necessary to obtain 50% inhibition of the viral replication of the tested SARS-CoV-2 strain.

coronavirus SARS-CoV-2 = format: cell-based
[7] = MOI 0.1, 48 hpi, remdesivir 20 µM, diltiazem 90 µM, berberine 4 µM
[8] = MOI 0.1, 72 hpi, remdesivir 20 µM, diltiazem 90 µM
[9] = MOI 0.1, 72 hpi, remdesivir 40 µM, diltiazem 45 µM
[10] = Severe acute respiratory syndrome coronavirus 2, Vero C1008, Vero E6, MOI 0.01, 48 hpi, read-out: IC50
[11] = Severe acute respiratory syndrome coronavirus 2, Vero C1008, Vero E6, MOI 0.01, 72 hpi, read-out: IC50

SMILES	bioavailability [1]	half-life [1] [h]	Reduction Relative viral production (%) (SARS-CoV-2 virus [2]; [7])	Reduction Relative viral production (-log10) (SARS-CoV-2 virus [2]; [7])	IC50 (SARS-CoV-2 virus [3]; Severe acute respiratory syndrome coronavirus 2, Vero C1008, Vero E6, MOI 0.01, 48 hpi) [µM]	IC50 (SARS-CoV-2 virus [3]; Severe acute respiratory syndrome coronavirus 2, Vero C1008, Vero E6, MOI 0.01, 72 hpi) [µM]	IC50 (SARS-CoV-2 virus [3]; Vero E6, MOI 0.01, 72 hpi, read-out: IC50) [µM]	Reduction Relative viral production (%) (SARS-CoV-2 virus [2]; [8])	Reduction Relative viral production (-log10) (SARS-CoV-2 virus [2]; [8])	Reduction Relative viral production (%) (SARS-CoV-2 virus [2]; [9])	Reduction Relative viral production (-log10) (SARS-CoV-2 virus [2]; [9])	IC50 (SARS-CoV-2 virus [3]; [10]) [µM]	IC50 (SARS-CoV-2 virus [3]; [11]) [µM]	CC50 at 72 h [4] [µM]	Inhibition of the viral titre in the supernatant over time (% of untreated) [5]	IC50 [6] [µM]	Reduction Relative viral production (-log10) (SARS-CoV-2 virus [2]; MOI 0.1, 48 hpi, remdesivir 20 µM, diltiazem 90 µM, berberine 4 µM, listed as remdesivir)	Antiviral action against coronavirus SARS-CoV-2 (coronavirus SARS-CoV-2)
COc1ccc2cc3[n+](cc2c1OC)CCc1cc2c(cc1-3)OCO2 [Berberine, berberine]	low	~4	86.37	0.86 -log10 and 0.8655 -log10	17.5	< 5.6	5.6 ± 1.7											
COc1ccc([C@@H]2Sc3ccccc3N(CCN(C)C)C(=O)[C@@H]2OC(C)=O)cc1.Cl [Diltiazem, diltiazem]			55.13	0.35 -log10 and 0.348 -log10				29.37	0.15 -log10 and 0.151 -log10	31.35	0.16 -log10 and 0.1634 -log10	> 45	> 45	374	same level of inhibition of the viral titre	19.7		
CCC(CC)COC(=O)[C@H](C)N[P@](=O)(OC[C@H]1O[C@@](C#N)(c2ccc3c(N)ncnn23)[C@H](O)[C@@H]1O)Oc1ccccc1 [Remdesivir, remdesivir]			100	more than 7.75 -log10				99.62		99.5	2.3 -log10 and 2.24 -log10	0.98	0.72				7.351 -log10	
O=c1cc(-c2ccc(O)cc2)oc2cc(O)cc(O)c12 [apigenin]																		does not have a significant antiviral action
